Laboratory results reported in PubChem BioAssay (NCI).
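Five compound concentrations were applied to cells in 96-well plates for 48 hours; endpoints were derived by simple linear interpolation of the resulting dose-response curve. TGI marks complete inhibition of growth.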

Experiments:
Experiment in all cases: NCI tumour cell line growth inhibition, 48 h
[1] = system: A549 NSCLC
[2] = system: M14 melanoma
[3] = system: SN12C renal
[4] = system: SW-620 colon
[5] = system: OVCAR-5 ovarian
[6] = system: KM12 colon
[7] = system: HCT-116 colon
[8] = system: HL-60(TB) leukemia
[9] = system: SF-539 CNS
[10] = system: MDA-MB-231 breast

Compound | TGI [1] [µM] | TGI [2] [µM] | TGI [3] [µM] | TGI [4] [µM] | TGI [5] [µM] | TGI [6] [µM] | TGI [7] [µM] | TGI [8] [µM] | TGI [9] [µM] | TGI [10] [µM]
CCC1=C(C(C)=O)[C@@H]2CCCCC[C@@H](C(=O)OC)C2C1=O (some centres not stated) | > 100 | > 100 | > 100 | > 100 | > 100 | > 100 | > 100 | > 100 | > 100 | –
CCOC(=O)C1(C#N)C(c2ccccc2)CC(O)(c2ccc(Cl)cc2)C(C(=O)c2ccc(Cl)cc2)C1c1ccccc1 (configuration not stated) | > 100 | > 100 | > 100 | > 100 | > 100 | > 100 | > 100 | > 100 | – | –
CC1(C)OCC2OC3([C@@H]4OC(C)(C)O[C@H]4CO)OC(C)(C)OC3C2O1 (some centres not stated) | > 100 | > 100 | > 100 | > 100 | > 100 | > 100 | > 100 | – | > 100 | > 100
Cn1c(=O)c(-c2ccccc2)c(O)c2ccccc21 | > 100 | – | > 100 | > 100 | > 100 | > 100 | > 100 | > 100 | > 100 | > 100
CC(C)C(CC(=O)OCC(CO)OC(=O)CC(C(C)C)C(C)C)C(C)C (configuration not stated) | 24 | 29.5 | 28.3 | 26.8 | 26.1 | 32 | 33.4 | – | – | 33.9
CS(=O)(=O)CSCSSCS(C)(=O)=O | > 100 | 40.8 | > 93.3 | 34.3 | > 93.8 | > 100 | > 100 | 55.7 | 53.5 | –
Nc1nc(Cl)cc(NCC2(O)CC2)n1 | > 100 | – | > 100 | > 100 | > 100 | > 100 | > 100 | > 100 | > 100 | > 100
CCCCSc1nsc(N(C(=O)c2ccccc2)C(=O)c2ccccc2)n1 | > 100 | > 100 | > 100 | > 100 | 89.4 | > 100 | 92.6 | 74 | 64.3 | –
O=C1N=C2SC(=S)NC(=S)N2NC12c1ccccc1-c1ccccc12 | > 10 | > 10 | > 10 | > 10 | – | > 10 | – | > 10 | > 10 | > 10
COC(=O)[C@@H]1CCCCC[C@H]2C(CO)=C(C)C(=O)C12 (some centres not stated) | > 100 | > 100 | > 100 | > 100 | > 100 | > 100 | > 100 | > 100 | > 100 | –
CSc1nc(NC(C)C)c2c(n1)Sc1nc3ccccc3n1N=C2 | 38.6 | > 100 | 35.4 | 35.3 | > 100 | 60.9 | 21.5 | > 100 | – | 30.2
COc1cccc2c1C(=O)c1c(O)c3c(c(O)c1C2=O)C[C@H](O)C[C@@H]3OC1CC(N)C(O)C(C)O1 (some centres not stated) | 14.1 | – | – | – | 11.8 | 10.1 | 7.88 | – | 11.2 | 6.05
CC(C)(C)OC(=O)NC(Cc1ccccc1)NC(=O)NC(=O)OCc1ccccc1 (configuration not stated) | > 100 | > 100 | > 100 | > 100 | > 100 | > 100 | > 100 | – | 60.8 | –
COC(=O)C1C(C(=O)OC)C2(OC(c3ccc(Cl)cc3)=CC2=O)C12OC(c1ccc(Cl)cc1)=CC2=O (configuration not stated) | > 100 | 42.8 | 52.8 | > 100 | 95.1 | – | 30.4 | 8.29 | 39.2 | 78.6
COc1ccccc1CN=C1Nc2ccncc2S(=O)(=O)N1c1ccccc1 | > 100 | > 100 | > 100 | > 100 | > 100 | > 100 | > 100 | > 100 | – | –
N#C/C(C(=O)Nc1ccc(Cl)cc1)=C(/N)N1CCCC1 | > 100 | > 100 | > 100 | > 100 | > 100 | > 100 | > 100 | > 100 | > 100 | –
c1ccc2c(c1)Sc1nccc3ccnc-2c13 | – | > 100 | > 100 | > 100 | > 100 | > 100 | > 100 | > 100 | > 100 | > 100
NC(=O)c1csc(C2(O)COC(CO)C2O)n1 (configuration not stated) | > 100 | > 100 | > 100 | > 100 | > 100 | > 100 | > 100 | – | > 100 | > 100
O=C1C=CC(=O)N1n1c(-c2ccccc2)n[nH]c1=O | > 100 | > 100 | > 100 | – | > 100 | – | > 100 | > 100 | > 100 | > 100
COC(=O)C1=C(C(=O)OC)SC(=CC#CC=C2SC(C(=O)OC)=C(C(=O)OC)S2)S1 | > 100 | > 76.2 | > 52.5 | > 52 | > 100 | > 100 | 32.3 | > 100 | 4.86 | –
O=C(N/N=C(/CCN1CCCC1)CC(c1ccccc1)c1c(O)c2ccccc2oc1=O)c1ccncc1 (configuration not stated) | > 100 | > 100 | > 100 | > 100 | > 100 | > 100 | > 100 | 84.8 | > 100 | –
Cc1cc2c(O)c(c1)CN(CC(=O)O)Cc1cc(C)cc(c1O)CN(CC(=O)O)Cc1cc(C)cc(c1O)CN(CC(=O)O)C2 | > 100 | > 100 | > 100 | > 100 | > 100 | > 100 | > 100 | – | > 100 | > 100
CN(C)/N=C(/c1nc2ccc(Cl)cc2[nH]c1=O)C(O)c1ccc(C(O)/C(=N\N(C)C)c2nc3ccc(Cl)cc3[nH]c2=O)cc1 (configuration not stated) | > 100 | > 100 | > 100 | > 100 | > 100 | > 100 | > 100 | > 100 | > 100 | –
Cc1cc(S(=O)(=O)/N=C(/C(=C=[N-])C#N)[n+]2ccc(N(C)C)cc2)c(SCC(=O)O)cc1Cl | > 100 | > 100 | > 100 | – | > 100 | > 100 | > 100 | > 100 | > 100 | > 100
